Entries after “also recorded” stand apart in the source; their conditions may differ. Like-named read-outs stand apart in the source and are kept apart here.
Key:
[1] = test system: peripheral neuropathic pain; test: Patient cases: topical application on the skin, pain scored on the 11-point numerical rating scale (NRS); details: individual patients of Cases 1-15
[2] = partition coefficient between octanol and water; cited from earlier work
neuropathic pain = details: in vivo; cited from earlier work
[3] = after oral administration; cited from earlier work
[4] = cited from earlier work

SMILES	analgesic effect of other or earlier treatment in the patient's history [1]	tolerability of earlier treatment in the patient's history (words) [1]	Log P [2]	other results
COc1cccc(C2(O)CCCCC2CN(C)C)c1 (centres unmarked) [tramadol]	did not have any analgesic effect	induced too many side effects	–	–
CN(C)C(=O)C(CCN1CCC(O)(c2ccc(Cl)cc2)CC1)(c1ccccc1)c1ccccc1 [Loperamide]	–	–	5.5	–
CC(C)C[C@H](CN)CC(=O)O [pregabalin]	did not have any effect	induced too many side effects	–	day at which significant pain reduction or relief versus placebo was shown (neuropathic pain): 2 days; median onset of action (>30% pain reduction) (neuropathic pain): 36 days; tolerability of earlier treatment in the patient's history (words) ([1]; listed as Pregabalin): too much side effects
O=[N+]([O-])O[C@H]1CO[C@H]2[C@@H]1OC[C@H]2O[N+](=O)[O-] [Isosorbide dinitrate]	–	–	1.3	–
CNCC[C@H](Oc1cccc2ccccc12)c1cccs1 [duloxetine]	did not have any effect	induced too many side effects	–	–
CNC1(c2ccccc2Cl)CCCCC1=O (centres unmarked) [Ketamine]	–	–	2.9	–
CN(C)CCC=C1c2ccccc2CCc2ccccc21 [amitriptyline]	no effect; also recorded: did not have any analgesic effect	induced too many side effects	–	–
O=C(O)Cc1ccccc1Nc1c(Cl)cccc1Cl [diclofenac]	–	–	–	Cmax. of diclofenac in corresponding tissue [3]: 1160 ng/mL
O=C1NC(=O)C(c2ccccc2)(c2ccccc2)N1.[Na] [phenytoin sodium, sodium 5,5-diphenyl-2,4-imidazolidinedione]	–	–	–	solubility in water ([4]; 37° C., pH 10): about 2 mg/ml; maximum solubility in water ([4]; 37° C., pH 11.1): about 140 mg/mL; solubility in water ([4]; 37° C., pH range between 1 and 6): 35 to 40 µg/mL; pH at which dissolvable in water in significant amounts ([4]; according to US 2009/0022779): ≥ 12 pH
NCC1(CC(=O)O)CCCCC1 [gabapentin]	did not have any effect	–	–	–
